#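 Assay format: 96-well plates, 48-hour exposure. Here, GI50 denotes the concentration required for 50% inhibition of growth. TGI marks complete inhibition of growth.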
# Columns and labels:
# Experiment in all cases: inhibition of tumour cell growth, NCI panel, 48 h
# [1] = tested on: ACHN renal
# [2] = tested on: KM12 colon
# [3] = tested on: M19-MEL melanoma
# [4] = tested on: OVCAR-8 ovarian
# [5] = tested on: SF-539 CNS
# [6] = tested on: SK-OV-3 ovarian
# [7] = tested on: SNB-78 CNS
# [8] = tested on: U251 CNS
# [9] = tested on: LOX IMVI melanoma
# [10] = tested on: MDA-MB-231 breast
Structure (SMILES),TGI [1],TGI [2],TGI [3],TGI [4],TGI [5],TGI [6],TGI [7],TGI [8],TGI [9],TGI [10],GI50 [1],GI50 [2],GI50 [9],GI50 [3],GI50 [4],GI50 [5],GI50 [6],GI50 [8],GI50 [10]
NC(=O)c1c[se]c(C2OC(COP(=O)(O)CP(=O)(O)OCC3OC(n4cnc5c(N)ncnc54)C(O)C3O)C(O)C2O)n1 (stereo unspecified),> 100 µM,> 100 µM,> 100 µM,> 100 µM,> 100 µM,> 100 µM,> 100 µM,> 100 µM,–,–,–,–,–,–,–,–,–,–,–
CC[P+]1(CC)CCCC1,> 100 µM,> 100 µM,> 100 µM,> 100 µM,> 100 µM,> 100 µM,> 100 µM,> 100 µM,> 100 µM,–,–,–,–,–,–,–,–,–,–
COC(=O)C1(F)C(=O)NC(=O)NC1OC (stereo unspecified),> 100 µM,> 100 µM,> 100 µM,> 100 µM,> 100 µM,> 100 µM,> 100 µM,> 100 µM,> 100 µM,–,–,–,–,–,–,–,–,–,–
COc1cc([C@H]2c3[nH]c4ccccc4c3C[C@H]3COC(=O)N32)cc(OC)c1O,28.5 µM,20.7 µM,> 100 µM,63.9 µM,2.86 µM,–,> 100 µM,19 µM,20.8 µM,49.8 µM,–,–,–,–,–,–,–,–,–
COc1nc2c(c(O)c(C)c(=O)n2OC2OC(COC(C)=O)C(OC(C)=O)C(OC(C)=O)C2OC(C)=O)c(=O)n1C (stereo unspecified),> 100 µM,> 100 µM,> 100 µM,> 100 µM,> 100 µM,–,> 100 µM,> 100 µM,> 100 µM,–,–,–,–,–,–,–,–,–,–
CC1(C)CC(=O)c2c(oc3cc(O)c(O)cc23)C1,> 100 µM,77.4 µM,> 100 µM,55.6 µM,> 100 µM,> 100 µM,> 100 µM,> 100 µM,31.4 µM,–,–,–,–,–,–,–,–,–,–
c1ccc(OCCSCCCCCCCCCCSCCOc2ccccc2)cc1,> 100 µM,> 100 µM,> 100 µM,> 100 µM,> 100 µM,> 100 µM,> 100 µM,> 100 µM,> 100 µM,–,–,–,–,–,–,–,–,–,–
CCCCCCCCCC(=O)Oc1cccc2onc(C)c12,> 100 µM,> 100 µM,> 100 µM,> 100 µM,> 100 µM,> 100 µM,> 100 µM,> 100 µM,> 100 µM,–,–,–,–,–,–,–,–,–,–
CC1=C(C(=O)CC(=O)C(=O)NC2C3CC4CC(C3)CC2C4)Sc2ccccc2N1 (stereo unspecified),> 100 µM,> 100 µM,> 100 µM,> 100 µM,> 100 µM,> 31.6 µM,> 100 µM,> 100 µM,> 100 µM,–,–,–,–,–,–,–,–,–,–
Cc1ccccc1NC(=O)C(=O)CC(=O)c1ccc([N+](=O)[O-])cc1,> 100 µM,> 100 µM,> 100 µM,> 100 µM,> 100 µM,> 100 µM,> 100 µM,> 100 µM,> 100 µM,–,–,–,–,–,–,–,–,–,–
CCOC(=O)C[C@@]12CCCNC1(C)CCc1ccccc12 (stereo partly specified),> 100 µM,> 100 µM,> 100 µM,> 100 µM,> 100 µM,> 100 µM,–,> 100 µM,> 100 µM,–,–,–,–,–,–,–,–,–,–
C/C(=N/O)c1ccc2c(c1)C(=NO)c1cc(/C(C)=N/O)ccc1-2,20.8 µM,32.9 µM,64.8 µM,32.3 µM,31.4 µM,36.5 µM,47.9 µM,28.6 µM,26.7 µM,–,–,–,–,–,–,–,–,–,–
O=C1C(c2ccccc2)=C(c2ccccc2)[C@H](c2ccccc2)[C@]1(Cc1nnn(-c2ccc([N+](=O)[O-])cc2)c1N1CCOCC1)c1ccccc1,> 37.5 µM,–,> 37.5 µM,> 37.5 µM,> 37.5 µM,> 37.5 µM,> 37.5 µM,> 37.5 µM,> 37.5 µM,–,–,–,–,–,–,–,–,–,–
Cc1cc([N+](=O)[O-])c(S(=O)(=O)c2ccccc2)c([N+](=O)[O-])c1,33.4 µM,32.1 µM,26.3 µM,> 62.5 µM,32.6 µM,74.7 µM,48.6 µM,26.6 µM,6.51 µM,–,–,–,–,–,–,–,–,–,–
CC(=O)[CH-]C(=O)c1ccccc1.CC(=O)[CH-]C(=O)c1ccccc1.[CH2-]CCC.[CH2-]CCC.[Sn+4],2.86 µM,2.76 µM,1.96 µM,3.1 µM,2.77 µM,3.99 µM,–,2.65 µM,2.47 µM,–,1490 nM,1410 nM,1060 nM,632 nM,1360 nM,1360 nM,2270 nM,1320 nM,–
COc1ccc(CC2=NCCc3cc(OC)c(OC)cc32)cc1Br,> 100 µM,84.4 µM,> 100 µM,> 100 µM,> 100 µM,> 100 µM,> 100 µM,> 100 µM,30.3 µM,–,–,–,–,–,–,–,–,–,–

Structure (SMILES),TGI [1],TGI [2],TGI [3],TGI [4],TGI [5],TGI [6],TGI [7],TGI [8],TGI [9],TGI [10],GI50 [1],GI50 [2],GI50 [9],GI50 [3],GI50 [4],GI50 [5],GI50 [6],GI50 [8],GI50 [10]
COC(=O)c1cc2c3c(ccc2[nH]1)N(C(=O)c1cc2c4c(ccc2[nH]1)N(C(=O)c1cc2c5c(ccc2[nH]1)N(C(N)=O)CC5)CC4)CC3,> 27.8 µM,> 100 µM,–,> 30.8 µM,> 34.8 µM,8.02 µM,> 100 µM,> 21.9 µM,> 34 µM,–,–,–,–,–,–,–,–,–,–
C/C(=N/NC(=O)CC(=O)N(C(=O)c1ccccc1Cl)c1ccc(C)cc1)c1cc2ccccc2oc1=O,> 100 µM,> 100 µM,> 100 µM,> 100 µM,> 100 µM,–,> 100 µM,> 100 µM,> 100 µM,–,–,–,–,–,–,–,–,–,–
NS(=O)(=O)c1ccc(NC(=O)c2cccn3c(=O)c4ccccc4nc23)cc1,> 100 µM,> 100 µM,> 100 µM,> 100 µM,> 100 µM,> 100 µM,> 100 µM,> 100 µM,> 100 µM,–,–,–,–,–,–,–,–,–,–
C[N+](C)=c1nc(N2CCOCC2)ss1,> 100 µM,> 100 µM,–,> 100 µM,> 100 µM,> 100 µM,> 100 µM,> 100 µM,> 100 µM,–,–,–,–,–,–,–,–,–,–
CC(=O)OCCC(O[Si](c1ccccc1)(c1ccccc1)C(C)(C)C)C(C)(C)O (stereo unspecified),> 100 µM,55 µM,57.2 µM,> 100 µM,63.8 µM,> 100 µM,> 100 µM,> 100 µM,57.8 µM,–,–,–,–,–,–,–,–,–,–
O=C(O)[C@@H]1CCCC[C@@H]1C(=O)N(C1CCCCC1)C1CCCCC1,> 100 µM,> 100 µM,> 100 µM,> 100 µM,> 100 µM,> 100 µM,> 100 µM,> 100 µM,> 100 µM,–,–,–,–,–,–,–,–,–,–
O=[N+]([O-])C1C2C=CC(C2)[C@H]1c1ccc(Cl)cc1Cl (stereo partly specified),> 100 µM,> 100 µM,> 100 µM,> 100 µM,> 100 µM,–,> 100 µM,> 100 µM,> 100 µM,–,–,–,–,–,–,–,–,–,–
CC(c1ccccc1)N1CC(C)(c2ccccc2)N(O)C(c2ccccc2)C1C (stereo unspecified),45.4 µM,> 100 µM,–,> 100 µM,26.5 µM,87.8 µM,89.9 µM,32.7 µM,30.1 µM,–,–,–,–,–,–,–,–,–,–
COc1cc2cccc(N=Cc3c(Br)ccc(OC)c3OC(C)C)c2cc1OC,> 100 µM,> 100 µM,> 100 µM,> 100 µM,> 100 µM,> 100 µM,> 100 µM,> 100 µM,–,–,–,–,–,–,–,–,–,–,–
c1ccc(NC[Si]23OCCN(CCO2)CCO3)cc1,> 100 µM,> 100 µM,> 100 µM,> 100 µM,> 100 µM,> 100 µM,> 100 µM,> 100 µM,–,–,–,–,–,–,–,–,–,–,–
COc1ccc(C2NCCc3c2[nH]c2ccccc32)cc1 (stereo unspecified),> 100 µM,> 100 µM,> 100 µM,> 100 µM,> 100 µM,> 100 µM,–,> 100 µM,> 100 µM,–,–,–,–,–,–,–,–,–,–
CC(C)(C)[Si](C)(C)OCC1OC(n2cnc3c(N)ncnc32)C(O)C1O (stereo unspecified),> 100 µM,> 100 µM,–,> 100 µM,> 100 µM,> 100 µM,–,> 100 µM,> 100 µM,> 100 µM,–,–,–,–,–,–,–,–,–
Cc1cc(=O)oc2cc(OCCn3c(C)nn(-c4ccc(Cl)cc4)c3=O)ccc12,> 100 µM,> 100 µM,–,> 100 µM,47.3 µM,48.8 µM,–,72.3 µM,> 100 µM,> 100 µM,5590 nM,1660 nM,4830 nM,–,5170 nM,4060 nM,3360 nM,4180 nM,4530 nM
Fc1c[c-]c(-c2ccccn2)c(F)c1.[CH3-].[Pt+2].c1ccc(P(C[PH+](c2ccccc2)c2ccccc2)c2ccccc2)cc1,1.49 µM,1.25 µM,–,5.76 µM,1.62 µM,6.03 µM,–,1.06 µM,1.28 µM,1.78 µM,792 nM,421 nM,539 nM,–,630 nM,838 nM,816 nM,347 nM,724 nM
C=CC1=CC(C)C[C@]1(O)C(=O)OC (stereo partly specified),–,–,–,–,> 100 µM,> 100 µM,> 100 µM,–,–,–,> 100000 nM,> 100000 nM,> 100000 nM,> 100000 nM,> 100000 nM,–,–,> 100000 nM,–
COc1ccc2[nH]c3c(=O)[nH]ncc3c2c1,> 100 µM,> 100 µM,> 100 µM,> 100 µM,> 100 µM,> 100 µM,> 100 µM,> 100 µM,> 100 µM,–,–,–,–,–,–,–,–,–,–
